Laboratory results published in the supplement of paper PMC12076712.

How the values were obtained:
Experiment in all cases: pIC50, kinobeads binding competition
LATS2 = molecular target: T1, LATS2 (UniProt Q9NRM7)
T1 sequence (whole entry): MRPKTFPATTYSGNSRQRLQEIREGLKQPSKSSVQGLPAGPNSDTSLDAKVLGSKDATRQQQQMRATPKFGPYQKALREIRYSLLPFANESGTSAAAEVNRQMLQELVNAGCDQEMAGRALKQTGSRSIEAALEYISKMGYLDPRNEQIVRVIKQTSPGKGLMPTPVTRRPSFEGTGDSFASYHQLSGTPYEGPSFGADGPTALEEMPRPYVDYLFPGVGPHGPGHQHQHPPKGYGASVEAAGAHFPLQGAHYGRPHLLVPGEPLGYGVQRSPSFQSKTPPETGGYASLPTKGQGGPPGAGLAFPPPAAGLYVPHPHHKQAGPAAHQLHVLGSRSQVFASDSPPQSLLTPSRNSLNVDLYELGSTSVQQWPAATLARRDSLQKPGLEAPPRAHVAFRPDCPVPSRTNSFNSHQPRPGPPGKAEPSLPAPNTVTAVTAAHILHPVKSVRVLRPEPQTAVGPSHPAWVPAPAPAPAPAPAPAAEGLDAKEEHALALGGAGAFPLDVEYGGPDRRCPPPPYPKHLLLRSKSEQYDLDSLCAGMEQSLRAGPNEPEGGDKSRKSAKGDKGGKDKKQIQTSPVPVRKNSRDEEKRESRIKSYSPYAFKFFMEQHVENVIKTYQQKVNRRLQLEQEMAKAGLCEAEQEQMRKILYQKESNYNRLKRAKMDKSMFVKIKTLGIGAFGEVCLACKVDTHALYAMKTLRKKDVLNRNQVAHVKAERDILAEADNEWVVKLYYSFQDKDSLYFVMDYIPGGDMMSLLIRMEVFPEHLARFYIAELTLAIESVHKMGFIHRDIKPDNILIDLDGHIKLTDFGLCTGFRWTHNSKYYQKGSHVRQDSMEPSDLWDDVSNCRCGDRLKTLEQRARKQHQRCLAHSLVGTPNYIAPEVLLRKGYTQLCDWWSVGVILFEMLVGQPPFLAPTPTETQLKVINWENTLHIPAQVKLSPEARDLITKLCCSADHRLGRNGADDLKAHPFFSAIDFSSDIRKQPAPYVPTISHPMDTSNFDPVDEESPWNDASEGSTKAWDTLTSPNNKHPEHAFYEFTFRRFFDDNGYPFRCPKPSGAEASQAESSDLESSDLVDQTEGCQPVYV
Method in brief: (§1)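 Either living Jurkat cells (60 min at 37 °C, then lysis) or lysates (60 min at 4 °C) were treated with nine compound concentrations from a top of 30 μM, in 1:4 steps for cells and 1:5 steps for lysates. The lysates were from Jurkat cells or a 1:1:1:1 mix of HEK293, K-562, HepG2 and placenta. Kinobeads-bound proteins were digested and quantified by TMT10 LC-MS/MS. pIC50 was calculated by logistic dose-response fitting (R drc package) of fold changes relative to vehicle, in biological duplicates.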

MASTL = molecular target: T2, MASTL (UniProt Q96GX5)
T2 sequence (whole entry): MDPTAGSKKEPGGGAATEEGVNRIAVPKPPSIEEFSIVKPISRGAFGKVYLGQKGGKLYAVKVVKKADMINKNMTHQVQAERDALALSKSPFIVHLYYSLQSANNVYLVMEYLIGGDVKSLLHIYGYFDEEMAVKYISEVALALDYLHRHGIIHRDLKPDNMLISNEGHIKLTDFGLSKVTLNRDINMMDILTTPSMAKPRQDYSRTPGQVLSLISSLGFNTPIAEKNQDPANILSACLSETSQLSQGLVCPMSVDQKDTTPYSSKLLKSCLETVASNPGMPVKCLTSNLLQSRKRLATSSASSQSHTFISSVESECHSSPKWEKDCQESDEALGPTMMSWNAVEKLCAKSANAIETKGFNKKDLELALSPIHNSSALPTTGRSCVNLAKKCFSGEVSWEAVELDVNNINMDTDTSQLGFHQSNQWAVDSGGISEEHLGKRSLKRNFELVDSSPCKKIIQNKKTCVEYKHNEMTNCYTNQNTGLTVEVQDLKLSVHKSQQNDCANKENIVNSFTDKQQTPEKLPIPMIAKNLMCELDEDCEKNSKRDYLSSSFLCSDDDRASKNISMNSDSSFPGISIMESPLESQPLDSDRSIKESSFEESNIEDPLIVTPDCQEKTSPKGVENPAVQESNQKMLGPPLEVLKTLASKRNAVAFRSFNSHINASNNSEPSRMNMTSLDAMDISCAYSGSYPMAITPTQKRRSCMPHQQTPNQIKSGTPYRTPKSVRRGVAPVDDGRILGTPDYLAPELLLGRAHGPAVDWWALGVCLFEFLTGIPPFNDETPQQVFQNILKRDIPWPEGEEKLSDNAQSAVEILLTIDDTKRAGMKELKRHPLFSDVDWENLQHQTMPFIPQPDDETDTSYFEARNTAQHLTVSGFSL
Method in brief: as §1

UniProt P57059 = settings: cell material: Lysate mix
Chain of UniProt P57059 (P57059 whole entry): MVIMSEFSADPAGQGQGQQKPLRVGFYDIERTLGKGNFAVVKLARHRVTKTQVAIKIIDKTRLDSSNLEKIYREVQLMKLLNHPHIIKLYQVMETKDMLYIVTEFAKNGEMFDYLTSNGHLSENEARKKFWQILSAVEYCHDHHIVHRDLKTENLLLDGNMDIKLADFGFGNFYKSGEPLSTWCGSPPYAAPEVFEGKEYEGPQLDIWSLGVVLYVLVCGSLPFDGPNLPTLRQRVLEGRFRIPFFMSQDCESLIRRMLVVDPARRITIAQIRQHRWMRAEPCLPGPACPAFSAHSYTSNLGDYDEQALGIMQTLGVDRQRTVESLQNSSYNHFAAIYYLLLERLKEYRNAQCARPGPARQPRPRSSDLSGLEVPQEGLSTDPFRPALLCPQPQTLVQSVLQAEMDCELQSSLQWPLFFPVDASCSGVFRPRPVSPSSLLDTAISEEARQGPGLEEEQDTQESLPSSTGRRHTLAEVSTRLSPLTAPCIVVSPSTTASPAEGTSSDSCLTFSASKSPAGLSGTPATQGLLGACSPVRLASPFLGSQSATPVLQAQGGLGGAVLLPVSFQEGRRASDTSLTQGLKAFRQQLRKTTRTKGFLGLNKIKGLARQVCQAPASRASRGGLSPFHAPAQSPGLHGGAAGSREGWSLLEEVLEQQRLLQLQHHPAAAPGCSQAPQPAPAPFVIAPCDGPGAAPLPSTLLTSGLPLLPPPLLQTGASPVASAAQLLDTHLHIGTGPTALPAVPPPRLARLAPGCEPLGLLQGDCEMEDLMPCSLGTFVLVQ
Method in brief: as §1

UniProt Q04912 = settings: cell material: Lysate mix
Chain of UniProt Q04912 (Q04912 whole entry): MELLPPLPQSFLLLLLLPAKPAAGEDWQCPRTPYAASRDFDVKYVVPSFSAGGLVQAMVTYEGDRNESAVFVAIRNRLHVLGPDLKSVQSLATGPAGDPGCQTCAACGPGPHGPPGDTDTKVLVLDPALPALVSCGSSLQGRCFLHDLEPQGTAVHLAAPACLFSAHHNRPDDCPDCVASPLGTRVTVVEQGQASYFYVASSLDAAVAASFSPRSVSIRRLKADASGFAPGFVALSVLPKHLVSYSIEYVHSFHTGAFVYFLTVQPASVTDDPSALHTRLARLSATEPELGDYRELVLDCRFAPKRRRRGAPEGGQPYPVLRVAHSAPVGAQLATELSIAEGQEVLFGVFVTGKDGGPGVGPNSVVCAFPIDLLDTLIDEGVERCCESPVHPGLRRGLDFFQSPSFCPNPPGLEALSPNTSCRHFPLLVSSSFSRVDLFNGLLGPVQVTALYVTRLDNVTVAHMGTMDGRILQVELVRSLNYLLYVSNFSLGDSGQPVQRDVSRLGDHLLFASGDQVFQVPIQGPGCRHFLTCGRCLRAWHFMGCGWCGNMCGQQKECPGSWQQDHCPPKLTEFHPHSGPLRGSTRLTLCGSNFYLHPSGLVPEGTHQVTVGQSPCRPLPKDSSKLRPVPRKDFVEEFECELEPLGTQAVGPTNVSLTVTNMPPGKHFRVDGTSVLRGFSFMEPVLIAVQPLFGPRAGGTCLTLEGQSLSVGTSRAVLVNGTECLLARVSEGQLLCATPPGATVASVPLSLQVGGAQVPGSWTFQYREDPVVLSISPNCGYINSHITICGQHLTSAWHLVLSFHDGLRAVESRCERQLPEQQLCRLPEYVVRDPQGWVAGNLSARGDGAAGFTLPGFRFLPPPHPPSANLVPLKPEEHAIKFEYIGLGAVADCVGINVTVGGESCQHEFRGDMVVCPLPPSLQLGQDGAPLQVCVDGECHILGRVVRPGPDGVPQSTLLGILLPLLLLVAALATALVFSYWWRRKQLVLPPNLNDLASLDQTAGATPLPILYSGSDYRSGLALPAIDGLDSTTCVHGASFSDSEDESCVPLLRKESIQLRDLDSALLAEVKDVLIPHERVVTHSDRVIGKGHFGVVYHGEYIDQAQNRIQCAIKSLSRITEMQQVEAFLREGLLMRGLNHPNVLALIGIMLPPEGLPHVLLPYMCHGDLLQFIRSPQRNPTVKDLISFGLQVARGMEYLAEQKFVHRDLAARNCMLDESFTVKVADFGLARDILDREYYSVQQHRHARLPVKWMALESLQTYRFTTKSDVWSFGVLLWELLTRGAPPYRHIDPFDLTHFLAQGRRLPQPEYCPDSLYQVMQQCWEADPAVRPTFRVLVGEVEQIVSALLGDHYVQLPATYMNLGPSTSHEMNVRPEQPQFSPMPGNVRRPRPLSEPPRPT
Method in brief: as §1

UniProt Q15303 = settings: cell material: Lysate mix
Chain of UniProt Q15303 (Q15303 whole entry): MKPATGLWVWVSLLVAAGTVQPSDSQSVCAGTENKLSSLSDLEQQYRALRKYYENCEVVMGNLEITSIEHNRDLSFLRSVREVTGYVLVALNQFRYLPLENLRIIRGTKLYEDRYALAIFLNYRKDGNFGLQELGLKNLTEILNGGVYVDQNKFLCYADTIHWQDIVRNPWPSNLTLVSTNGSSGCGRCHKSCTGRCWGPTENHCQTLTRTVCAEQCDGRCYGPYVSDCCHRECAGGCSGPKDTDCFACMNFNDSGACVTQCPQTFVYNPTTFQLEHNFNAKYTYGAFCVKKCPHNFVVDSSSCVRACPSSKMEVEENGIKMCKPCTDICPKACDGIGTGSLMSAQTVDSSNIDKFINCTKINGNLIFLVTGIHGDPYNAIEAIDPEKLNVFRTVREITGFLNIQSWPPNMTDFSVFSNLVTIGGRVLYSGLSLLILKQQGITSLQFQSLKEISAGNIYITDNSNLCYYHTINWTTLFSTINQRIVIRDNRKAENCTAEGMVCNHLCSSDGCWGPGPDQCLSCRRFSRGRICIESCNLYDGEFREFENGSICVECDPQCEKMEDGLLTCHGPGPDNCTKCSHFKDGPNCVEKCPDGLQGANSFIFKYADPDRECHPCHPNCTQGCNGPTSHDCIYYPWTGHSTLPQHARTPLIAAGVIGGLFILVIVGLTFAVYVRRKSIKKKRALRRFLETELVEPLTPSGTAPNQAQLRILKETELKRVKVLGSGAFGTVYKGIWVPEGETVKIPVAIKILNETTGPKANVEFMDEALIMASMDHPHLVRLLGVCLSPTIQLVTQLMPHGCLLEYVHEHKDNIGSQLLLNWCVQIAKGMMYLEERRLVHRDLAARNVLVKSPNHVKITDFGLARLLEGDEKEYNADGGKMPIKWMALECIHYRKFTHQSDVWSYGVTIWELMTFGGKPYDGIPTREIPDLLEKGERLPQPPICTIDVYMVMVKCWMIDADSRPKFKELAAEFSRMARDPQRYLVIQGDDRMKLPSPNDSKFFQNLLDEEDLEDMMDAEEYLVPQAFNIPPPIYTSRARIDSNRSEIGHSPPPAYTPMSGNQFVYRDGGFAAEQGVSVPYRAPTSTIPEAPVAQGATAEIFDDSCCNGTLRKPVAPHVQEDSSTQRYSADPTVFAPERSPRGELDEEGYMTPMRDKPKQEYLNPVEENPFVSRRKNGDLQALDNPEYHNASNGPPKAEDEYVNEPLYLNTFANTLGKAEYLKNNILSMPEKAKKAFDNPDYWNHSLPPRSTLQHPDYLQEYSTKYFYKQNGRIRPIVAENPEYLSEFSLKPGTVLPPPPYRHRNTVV
Method in brief: as §1

UniProt Q9UQB9 = molecular target: T3, UniProt Q9UQB9
T3 sequence (whole entry): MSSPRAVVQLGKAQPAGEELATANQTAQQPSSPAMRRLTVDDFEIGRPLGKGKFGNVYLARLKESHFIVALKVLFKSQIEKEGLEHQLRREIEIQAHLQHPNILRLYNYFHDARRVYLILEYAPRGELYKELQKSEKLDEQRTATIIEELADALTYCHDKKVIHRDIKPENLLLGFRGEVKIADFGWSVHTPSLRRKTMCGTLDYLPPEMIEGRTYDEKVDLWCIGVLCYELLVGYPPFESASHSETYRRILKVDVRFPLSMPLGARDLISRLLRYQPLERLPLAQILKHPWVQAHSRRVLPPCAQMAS
Method in brief: as §1

pIC50 (LATS2; cell material: Jurkat lysate)	pIC50 (LATS2; cell material: Lysate mix)	pIC50 (UniProt P57059)	pIC50 (UniProt Q04912)	pIC50 (UniProt Q15303)	pIC50 (UniProt Q9UQB9; cell material: Lysate mix)	pIC50 (MASTL; cell material: Lysate mix)	Structure (SMILES)	pIC50 (LATS2; cell material: Jurkat cells)	pIC50 (MASTL; cell material: Jurkat cells)	pIC50 (MASTL; cell material: Jurkat lysate)	pIC50 (UniProt Q9UQB9; cell material: Jurkat lysate)
< 4.52	< 4.52	< 4.52	< 4.52	< 4.52	4.88	–	O=C(NCCNC(=O)c1cc(Nc2cc(C3CC3)[nH]n2)nc(N2CCN(Cc3ccc(S(=O)(=O)F)cc3)CC2)n1)OC1CC/C=C/CCC1 (centres undefined)	5.54	6.1	–	–
–	< 4.52	–	< 4.52	< 4.52	4.7	< 4.52	Cc1cc(Nc2cc(C(=O)NCCNC(=O)OC3CC/C=C/CCC3)nc(N3CCN(Cc4ccc(S(=O)(=O)F)cc4)CC3)n2)n[nH]1 (centres undefined)	–	–	–	–
–	5.31	< 4.52	< 4.52	4.96	5.26	6.85	CCNC(=O)c1cc(Nc2cc(C3CC3)[nH]n2)nc(N2CCN(Cc3ccc(S(=O)(=O)F)cc3)CC2)n1	–	–	–	–
–	–	< 4.52	4.54	5.04	5.64	–	CCNC(=O)c1cc(Nc2cc(C)[nH]n2)nc(N2CCN(Cc3ccc(S(=O)(=O)F)cc3)CC2)n1	–	–	–	–
–	4.77	–	< 4.52	4.99	–	–	C#CCNC(=O)c1cc(Nc2cc(C)[nH]n2)nc(N2CCN(Cc3ccc(S(=O)(=O)F)cc3)CC2)n1	–	–	–	–

Structure (SMILES)	pIC50 (LATS2; cell material: Jurkat lysate)	pIC50 (LATS2; cell material: Lysate mix)	pIC50 (UniProt P57059)	pIC50 (UniProt Q04912)	pIC50 (UniProt Q15303)	pIC50 (UniProt Q9UQB9; cell material: Lysate mix)	pIC50 (MASTL; cell material: Lysate mix)	pIC50 (LATS2; cell material: Jurkat cells)	pIC50 (MASTL; cell material: Jurkat cells)	pIC50 (MASTL; cell material: Jurkat lysate)	pIC50 (UniProt Q9UQB9; cell material: Jurkat lysate)
C#CCNC(=O)c1cc(Nc2cc(C3CC3)[nH]n2)nc(N2CCN(Cc3ccc(S(=O)(=O)F)cc3)CC2)n1	–	5.84	< 4.52	–	–	5.81	6.74	5.82	6.15	6.03	5.48
